Measurements as given in article PMC6478789, “A chemical toolbox for the study of bromodomains and epigenetic signaling” (Nature Communications, 2019).
Where two headings read alike, the source gives them in different places. Each block holds one compound with its values, some of them ahead of it.

Experiments:
ATAD2A = target: T1, ATAD2A (Homo sapiens, UniProt Q6PL18); experiment: BROMOscan ligand-binding assay
T1 sequence (Q6PL18 980-1092 limits assumed): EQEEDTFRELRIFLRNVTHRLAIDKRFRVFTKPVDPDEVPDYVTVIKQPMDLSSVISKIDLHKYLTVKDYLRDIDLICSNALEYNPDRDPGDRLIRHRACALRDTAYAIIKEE
Description: (§6) BROMOscan is a binding assay based on the well-known KINOMEscan technology. This assay measures the binding of a DNA-tagged bromodomain to an immobilized BRD ligand. If an inhibitor is present, it will compete with the bromodomain binding to the immobilized ligand, resulting in reduction of a quantitative PCR (qPCR) signal in a dose-dependent manner.

BRD1 = target: T2, BRD1 (Homo sapiens, UniProt O95696); experiment: BROMOscan ligand-binding assay
T2 sequence (O95696 562-666 limits assumed): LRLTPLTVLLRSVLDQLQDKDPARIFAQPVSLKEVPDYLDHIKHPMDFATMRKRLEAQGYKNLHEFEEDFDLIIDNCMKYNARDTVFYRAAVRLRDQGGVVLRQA
Description: as §6

BRD2(1,2) = BRD2(1,2) (Homo sapiens, UniProt P25440); experiment: BROMOscan ligand-binding assay
Description: as §6

BRD3(1) = BRD3(1) (Homo sapiens, UniProt Q15059); experiment: BROMOscan ligand-binding assay
Description: as §6

BRD3(2) = BRD3(2) (Homo sapiens, UniProt Q15059); experiment: BROMOscan ligand-binding assay
Description: as §6

BRD4(fl) = BRD4(fl) (Homo sapiens, UniProt O60885); experiment: BROMOscan ligand-binding assay
Description: as §6

BRD9 = target: T3, BRD9 (Homo sapiens, UniProt Q9H8M2); experiment: BROMOscan ligand-binding assay
T3 sequence (Q9H8M2 136-240 limits assumed): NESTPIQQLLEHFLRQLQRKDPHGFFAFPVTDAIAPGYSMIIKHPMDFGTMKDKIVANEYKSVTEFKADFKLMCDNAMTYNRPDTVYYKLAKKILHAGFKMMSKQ
Description: as §6

CECR2 = CECR2 (Homo sapiens, UniProt Q9BXF3); experiment: BROMOscan ligand-binding assay
Description: as §6

EP300 = target: T4, EP300 (Homo sapiens, UniProt Q09472); experiment: BROMOscan ligand-binding assay
T4 sequence (Q09472 1049-1156 limits assumed): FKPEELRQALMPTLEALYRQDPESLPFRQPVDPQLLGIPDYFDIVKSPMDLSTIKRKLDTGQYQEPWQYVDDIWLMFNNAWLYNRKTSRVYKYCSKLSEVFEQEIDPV
Description: as §6

FALZ = FALZ (Homo sapiens, UniProt Q12830); experiment: BROMOscan ligand-binding assay
Description: as §6

GCN5L2 = target: T5, GCN5L2 (Homo sapiens, UniProt Q92830); experiment: BROMOscan ligand-binding assay
T5 sequence (Q92830 728-832 limits assumed): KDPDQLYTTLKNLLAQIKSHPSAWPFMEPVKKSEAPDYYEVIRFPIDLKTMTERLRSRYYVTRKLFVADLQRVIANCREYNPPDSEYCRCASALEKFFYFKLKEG
Description: as §6

PBRM1(5) = PBRM1(5) (Homo sapiens, UniProt Q86U86); experiment: BROMOscan ligand-binding assay
Description: as §6

TRIM24 = target: T6, TRIM24 (Homo sapiens, UniProt O15164); experiment: BROMOscan ligand-binding assay
T6 sequence (O15164 899-1004 limits assumed): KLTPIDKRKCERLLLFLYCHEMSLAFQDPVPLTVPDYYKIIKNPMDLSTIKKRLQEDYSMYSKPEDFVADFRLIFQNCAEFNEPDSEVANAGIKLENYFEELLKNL
Description: as §6

WDR9(2) = WDR9(2) (Homo sapiens, UniProt Q9NSI6); experiment: BROMOscan ligand-binding assay
Description: as §6

53BP1 = 53BP1 (Homo sapiens, UniProt Q12888); experiment: Temperature shift assay (non-BRD reader domains); format: binding; details: 10µM compound
Description: (§1) Temperature shift assays have been described by Fedorov et al.[46]. Recombinant protein domains (bromodomain or kinases) at a concentration of 2 μM in 10 mM HEPES, pH 7.5, and 500 mM NaCl were mixed with 10 μM of chemical probes. Temperature-dependent protein unfolding profiles were measured using a Real-Time PCR Mx3005p machine (Stratagene).
(§2) Wu et al., Supplementary figures and tables 14
(§3) Supplementary Table 3: Selectivity screening data (non-BRD reader domains):
(§4) Temperature shift assay data of BRD probes screened against a diver se panel of methyl-lysine
(§5) reader domains. Compounds were screened a concentration of 10 µM. Shown are temperature

BRPF3 = BRPF3 (Homo sapiens, UniProt Q9ULD4); experiment: Temperature shift assay (non-BRD reader domains); format: binding; details: 10µM compound
Description: as §1, §2, §3, §4, §5

FXR1 = FXR1 (Homo sapiens, UniProt P51114); experiment: Temperature shift assay (non-BRD reader domains); format: binding; details: 10µM compound
Description: as §1, §2, §3, §4, §5

RBBP1 = experiment: Temperature shift assay (non-BRD reader domains); format: binding; details: 10µM compound
Description: as §1, §2, §3, §4, §5

TDRD3 = TDRD3 (Homo sapiens, UniProt Q9H7E2); experiment: Temperature shift assay (non-BRD reader domains); format: binding; details: 10µM compound
Description: as §1, §2, §3, §4, §5

WDR5 = WDR5 (Homo sapiens, UniProt P61964); experiment: Temperature shift assay (non-BRD reader domains); format: binding; details: 10µM compound
Description: as §1, §2, §3, §4, §5

BRPF1 = BRPF1 (Homo sapiens, UniProt P55201); experiment: Temperature shift assay (non-BRD reader domains); format: binding; details: 10µM compound
[1] = KD (BROMOscan), sheet prints no unit (nM)

Chain of WDR9(2) (Q9NSI6 1313-1418 limits assumed): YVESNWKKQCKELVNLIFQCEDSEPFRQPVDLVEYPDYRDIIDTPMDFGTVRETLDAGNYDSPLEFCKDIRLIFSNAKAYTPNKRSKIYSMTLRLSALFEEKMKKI
Chain of BRD3(1) (Q15059 34-140 limits assumed): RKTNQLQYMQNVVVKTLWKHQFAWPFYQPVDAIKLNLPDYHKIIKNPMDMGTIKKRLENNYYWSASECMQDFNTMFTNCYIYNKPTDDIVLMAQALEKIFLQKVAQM
Chain of BRD2(1,2) (P25440 71-455 limits assumed): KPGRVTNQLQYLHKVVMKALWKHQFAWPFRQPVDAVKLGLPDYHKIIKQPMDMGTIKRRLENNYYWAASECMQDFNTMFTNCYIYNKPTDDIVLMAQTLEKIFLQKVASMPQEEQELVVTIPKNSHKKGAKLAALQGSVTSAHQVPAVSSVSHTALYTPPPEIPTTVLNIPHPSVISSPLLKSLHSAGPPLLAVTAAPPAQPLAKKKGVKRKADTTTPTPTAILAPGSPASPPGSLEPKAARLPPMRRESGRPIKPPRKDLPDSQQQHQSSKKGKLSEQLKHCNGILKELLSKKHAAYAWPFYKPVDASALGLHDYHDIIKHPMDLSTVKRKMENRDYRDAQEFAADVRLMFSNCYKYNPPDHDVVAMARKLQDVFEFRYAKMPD
Chain of CECR2 (Q9BXF3 434-538 limits assumed): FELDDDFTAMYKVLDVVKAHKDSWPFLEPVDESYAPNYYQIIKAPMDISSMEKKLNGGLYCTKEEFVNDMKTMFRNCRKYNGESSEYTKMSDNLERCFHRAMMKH
Chain of PBRM1(5) (Q86U86 653-763 limits assumed): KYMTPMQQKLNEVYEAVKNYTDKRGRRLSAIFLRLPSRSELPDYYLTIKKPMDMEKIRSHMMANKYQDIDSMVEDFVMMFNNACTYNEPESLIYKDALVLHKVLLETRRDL
Chain of BRD3(2) (Q15059 306-415 limits assumed): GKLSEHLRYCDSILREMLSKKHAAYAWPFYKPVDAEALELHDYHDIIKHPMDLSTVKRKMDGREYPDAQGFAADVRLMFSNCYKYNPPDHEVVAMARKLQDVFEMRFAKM
Chain of BRPF1 (P55201 1085-1168 limits assumed, species assumed): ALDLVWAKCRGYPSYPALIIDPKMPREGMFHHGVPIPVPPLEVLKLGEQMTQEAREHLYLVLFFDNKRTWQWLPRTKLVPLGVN
Chain of BRPF3 (Q9ULD4 1076-1159 limits assumed, species assumed): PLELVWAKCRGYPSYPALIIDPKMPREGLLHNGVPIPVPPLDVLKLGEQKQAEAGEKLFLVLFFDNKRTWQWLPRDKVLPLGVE
Chain of FXR1 (P51114 2-132 limits assumed, species assumed): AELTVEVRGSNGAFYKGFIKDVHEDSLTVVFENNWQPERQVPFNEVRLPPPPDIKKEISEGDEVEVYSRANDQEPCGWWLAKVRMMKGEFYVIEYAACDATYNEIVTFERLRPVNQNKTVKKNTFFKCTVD
Chain of 53BP1 (Q12888 1484-1603 limits assumed, species assumed): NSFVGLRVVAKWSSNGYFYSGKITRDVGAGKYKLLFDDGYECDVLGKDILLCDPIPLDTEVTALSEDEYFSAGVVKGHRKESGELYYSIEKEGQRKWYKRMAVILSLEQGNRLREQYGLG
Chain of TDRD3 (Q9H7E2 555-615 limits assumed, species assumed): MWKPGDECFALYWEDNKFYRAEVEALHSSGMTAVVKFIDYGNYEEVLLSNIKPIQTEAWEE

Structure (SMILES): CCCOc1ccn2c(C(C)=O)cc(-c3ccccc3S(C)(=O)=O)c2c1 [GSK2801]
Kd (ATAD2A; [1]): > 30000 nM
Kd (ATAD2A; KD, BROMOscan Gene Symbol ATAD2A): > 100000 nM
Kd (BRD1): 60 µM
Kd (BRD2(1,2)): 19 µM
Kd (BRD3(1); KD, BROMOscan Gene Symbol BRD3(1)): 34 µM
Kd (BRD3(2); KD, BROMOscan Gene Symbol BRD3(2)): 13 µM
Kd (BRD4(fl)): 41 µM
Kd (BRD9; KD, BROMOscan Gene Symbol BRD9): 0.12 µM
Kd (CECR2; KD, BROMOscan Gene Symbol CECR2): 9 µM
Kd (EP300; KD, BROMOscan Gene Symbol EP300): 70 µM
Kd (FALZ; KD, BROMOscan Gene Symbol FALZ): 95 µM
Kd (GCN5L2; [1]): > 30000 nM
Kd (GCN5L2; KD, BROMOscan Gene Symbol GCN5L2): > 100000 nM
Kd (PBRM1(5); [1]): > 30000 nM
Kd (PBRM1(5); KD, BROMOscan Gene Symbol PBRM1(5)): > 100000 nM
Kd (TRIM24; KD, BROMOscan Gene Symbol TRIM24(Bromo.)): 24 µM
Kd (WDR9(2); [1]): > 30000 nM
Kd (WDR9(2); KD, BROMOscan Gene Symbol WDR9(2)): > 100000 nM

Structure (SMILES): Cc1cc2c(cc1N1C(=O)c3cccc4c(CCCO)ccc(c34)C1=O)n(C)c(=O)n2C [BAY-299]
Tm (C) 10µM, temperature shift (53BP1): 0.3 Kelvin
Tm (C) 10µM, temperature shift (BRPF3): 1.5 Kelvin
Tm (C) 10µM, temperature shift (FXR1): 0.8 Kelvin
Tm (C) 10µM, temperature shift (RBBP1): -1.0 Kelvin
Tm (C) 10µM, temperature shift (TDRD3): -1.4 Kelvin
Tm (C) 10µM, temperature shift (WDR5): 0.2 Kelvin
Tm (C) 10µM, temperature shift (BRPF1): -2.5 Kelvin

Results, then the compound that gave them:

Kd (ATAD2A; ATAD2A): > 50000 nM
Kd (BRD1; BRD1): 0.046 µM
Kd (BRD2(1,2); BRD2(1,2)): 12 µM
Kd (BRD3(1); BRD3(1)): 7.2 µM
Kd (BRD3(2); BRD3(2)): > 50 µM
Kd (BRD4(fl); BRD4(full-length,short-iso.)): 4.9 µM
Kd (BRD9; BRD9): 0.16 µM
Kd (CECR2; CECR2): 12 µM
Kd (EP300; EP300): 15 µM
Kd (FALZ; FALZ): 2.3 µM
Kd (GCN5L2; GCN5L2): 4100 nM
Kd (PBRM1(5); PBRM1(5)): 11000 nM
Kd (TRIM24; TRIM24(Bromo.)): 1.6 µM
Kd (WDR9(2); WDR9(2)): > 50000 nM
Structure (SMILES): COc1cc(C#N)ccc1S(=O)(=O)Nc1ccc2c(c1)cc(C)c(=O)n2C [NI 57]

Kd (BRD1): > 14000 µM
Kd (BRD2(1,2)): 7300 µM
Kd (BRD4(fl)): > 14000 µM
Kd (BRD9; KD, BRD9): > 14000 µM
Kd (CECR2; KD, CECR2): > 14000 µM
Kd (EP300; KD, EP300): > 14000 µM
Kd (FALZ; KD, FALZ): > 14000 µM
Kd (GCN5L2; KD, GCN5L2): > 1.4e+07 nM
Kd (PBRM1(5); KD, PBRM1(5)): 160000 nM
Kd (TRIM24; KD, TRIM24(Bromo.)): > 14000 µM
Kd (WDR9(2); KD, WDR9(2)): > 1.4e+07 nM
Structure (SMILES): O=C(O)c1ccccc1O [Salicylic Acid]

Kd (ATAD2A; ATAD2A): > 50000 nM
Kd (BRD1; BRD1): 22 µM
Kd (BRD2(1,2); BROMOscan, BRD2(1,2)): 35 µM
Kd (BRD3(1); BROMOscan, BRD3(1)): 44 µM
Kd (BRD3(2); BROMOscan, BRD3(2)): > 50 µM
Kd (BRD4(fl); BROMOscan, BRD4(full-length,short-iso.)): > 50 µM
Kd (CECR2; BROMOscan, CECR2): > 50 µM
Kd (EP300; BROMOscan, EP300): > 50 µM
Kd (FALZ; BROMOscan, FALZ): > 50 µM
Kd (GCN5L2; BROMOscan, GCN5L2): > 50000 nM
Kd (PBRM1(5); BROMOscan, PBRM1(5)): > 50000 nM
Kd (TRIM24; BROMOscan, TRIM24(Bromo.)): > 50 µM
Kd (WDR9(2); BROMOscan, WDR9(2)): > 50000 nM
Structure (SMILES): Cc1cc(=O)n(C)c2cc(N3C(=O)CC[C@H](NS(=O)(=O)CC(C)C)[C@H]3c3ccc(Cl)cc3)ccc12 [LP-99]
